The target in this experiment is T1, human V1A receptor (Homo sapiens, UniProt P37288).
T1 construct: expressed in transfected cells; host or cells: CHO cells (CHO-hV1A line provided by Marc Thibonnier, Case Western Reserve University)
Description: V1A filter binding assay ([3H]-AVP binding to CHO-hV1A membranes). As to conditions: Ki by Cheng-Prusoff. How it is done:
1.0 V1A Filter Binding Assay
Receptor binding assays were performed on cellular membranes prepared from CHO cells stably expressing the human V1A receptor, (CHO-hV1A). The CHO-hV1A cell line was kindly provided under a licensing agreement by Marc Thibonnier, Dept. of Medicine, Case Western Reserve University School of Medicine, Cleveland, Ohio. CHO-hV1A cells were routinely maintained at 37° C. in humidified atmosphere with 5% CO2 in DMEM/Hams F12 nutrient mix supplemented with 10 % fetal bovine serum, 2 mM L-glutamine, 15 mM HEPES and 400 μg/ml G418. For bulk production of cell pellets, adherent CHO-hV1A cells were grown to confluency of 90-100% in 850 cm^2 roller bottles containing a medium of DMEM/Hams F12 Nutrient Mix supplemented with 10% fetal bovine serum, 2 mM L-glutamine and 15 mM HEPES. Confluent CHO-hV1A cells were washed with phosphate-buffered saline (PBS), harvested into ice cold PBS and centrifuged at 1,000 rpm. Cell pellets were stored at −80° C. until use. Cell pellets were thawed on ice and homogenised in membrane preparation buffer consisting of 50 mM Tris-HCl, pH 7.4, 5 mM MgCl2 and supplemented with a protease inhibitor cocktail, (Roche). The cell homogenate was centrifuged at 1000 rpm, 10 min, 4° C. and the supernatant was removed and stored on ice. The remaining pellet was homogenised and centrifuged as before. The supernatants were pooled and centrifuged at 25,000× g for 30 min at 4° C. The pellet was resuspended in freezing buffer consisting of 50 mM Tris-HCl, pH 7.4, 5 mM MgCl2 and 20% glycerol and stored in small aliquots at −80° C. until use. Protein concentration was determined using Bradford reagent and BSA as a standard.
Protein linearity followed by saturation binding studies were performed on each new batch of membrane. Membrane concentration was chosen that gave specific binding on the linear portion of the curve. Saturation binding studies were then performed using various concentrations of [^3H]-arginine vasopressin, [^3H]-AVP (0.05 nM-100 nM) and the Kd and Bmax determined.
Compounds were tested for their effects on [^3H]-AVP binding to CHO-hV1A membranes, (^3H-AVP; specific activity 65.5 Ci/mmol; NEN Life Sciences). Compounds were solubilised in dimethylsulfoxide (DMSO) and diluted to working concentration of 10% DMSO with assay buffer containing 50 mM Tris-HCL pH 7.4, 5 mM MgCl2 and 0.05% BSA. […] The binding reaction was initiated by the addition of 200 μl membrane and the plates were gently shaken for 60 min at room temperature. The reaction was terminated by rapid filtration using a Filtermate Cell Harvester (Packard Instruments) through a 96-well GF/B UniFilter Plate which had been pre-soaked in 0.5% polyethyleneimine to prevent peptide sticking. The filters were washed three times with 1 ml ice cold wash buffer containing 50 mM Tris-HCL pH 7.4 and 5 mM MgCl2. The plates were dried and 50 μl Microscint-0 (Packard instruments) was added to each well. The plates were sealed and counted on a TopCount Microplate Scintillation Counter (Packard Instruments). Non-specific binding (NSB) was determined using 1 μM unlabelled d(CH2)5Tyr(Me)AVP ([β-mercapto-β,β-cyclopentamethylenepropionyl,0-Me-Tyr^2,Arg^8]-vasopressin) (βMCPVP), (Sigma). The radioligand binding data was analysed using a four parameter logistic equation with the min forced to 0%. The slope was free fitted and fell between −0.75 and −1.25 for valid curves. Specific binding was calculated by subtracting the mean NSB cpm from the mean Total cpm. For test compounds the amount of ligand bound to the receptor was expressed as % bound=(sample cpm−mean NSB cpm)/specific binding cpm ×100. The % bound was plotted against the concentration of test compound and a sigmoidal curve was fitted. The inhibitory dissociation constant (Ki) was calculated using the Cheng-Prusoff equation: Ki=IC50/(1+[L]/Kd) where [L] is the concentration of ligand present in the well and Kd is the dissociation constant of the radioligand obtained from Scatchard plot analysis. […]

T1 sequence (P37288 whole entry): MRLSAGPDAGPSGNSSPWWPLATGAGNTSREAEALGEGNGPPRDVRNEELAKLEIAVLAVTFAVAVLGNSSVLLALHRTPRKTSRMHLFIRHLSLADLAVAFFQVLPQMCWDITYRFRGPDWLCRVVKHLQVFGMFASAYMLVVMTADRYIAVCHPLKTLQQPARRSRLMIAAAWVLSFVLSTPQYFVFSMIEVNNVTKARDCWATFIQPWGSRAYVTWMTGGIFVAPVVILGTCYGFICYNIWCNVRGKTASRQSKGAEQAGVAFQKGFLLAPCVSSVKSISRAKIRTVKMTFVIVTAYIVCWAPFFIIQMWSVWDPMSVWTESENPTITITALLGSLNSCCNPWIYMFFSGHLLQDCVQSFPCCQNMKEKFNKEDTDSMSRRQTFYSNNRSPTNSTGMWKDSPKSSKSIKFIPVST

For `Clc1ccc(-n2c(Cn3nccn3)nnc2N2CCC(Oc3ncccn3)CC2)cc1` [Example 34, 2-{1-[4-(4-Chloro-phenyl)-5-[1,2,3]triazole-2-ylmethyl-4H-[1,2,4]triazole-3-yl]-piperidin-4-yloxy}-pyrimidine], the affinity, expressed as Ki, was 1.06 nM.

In turn, `CCOCc1nnc(N2CCC(Oc3ncccn3)CC2)n1-c1ccc(Cl)cc1` [Example 38] came in with a Ki of 0.96 nM.

`Cc1nnc(N2CCC(N(C)c3ncccn3)CC2)n1-c1ccc(Cl)cc1` [Example 41, N-{1-[4-(4-Chlorophenyl)-5-methyl-4H-1,2,4-triazol-3-yl]-piperidin-4-yl}-N-methylpyrimidin-2-amine]: the Ki was 1.49 nM.

`Cc1nnc(N2CCC(N(C)c3ccccn3)CC2)n1-c1ccc(Cl)cc1` [Example 40, N-{1-[4-(4-Chlorophenyl)-5-methyl-4H-1,2,4-triazol-3-yl]-piperidin-4-yl}-N-methylpyridin-2-amine] yielded a Ki of 0.5 nM.

Take `COCc1nnc(N2CCC(Oc3ccccn3)CC2)n1-c1ccc(Cl)cc1` [Example 33, 2-({1-[4-(4-Chlorophenyl)-5-(methoxymethyl)-4H-1,2,4-triazol-3-yl]piperidin-4-yl}oxy)pyridine]: affinity was put at a Ki of 1.28 nM.

`Cc1nnc(N2CCC(Oc3ccccc3)CC2)n1-c1ccc(Cl)cc1` [Example 26, 1-[4-(4-Chloro-phenyl)-5-methyl-4H-[1,2,4]triazole-3-yl]-4-phenoxy-piperidine] had a Ki of 3.19 nM.

The values above are taken from patent publication US20070225333A1, “3-Heterocyclyl-4-Phenyl-Triazole Derivatives as Inhibitors of the Vasopressin Via Receptor” (priority 2004, published 2007).
